According to US9963485B2, “Cycloheptapeptide agents for treatment of cancer and obesity diseases” (Hong Kong Baptist University, priority 2012, dated 2018):
Like-named read-outs stand apart in the source and are kept apart here. *1 amine or outer side, *2 acyl side, *3 side chain or, on linkers, in order; H or OH if unused. Where a SMILES comes first, the peptide text is derived from it. [ ]: non-standard residue; d: D form. X2 = C[C@@H]1C([C@@H](N[*:1])C(=O)[*:2])[C@H]1C; X1 = C[C@@H]1C([C@H](N[*:1])C(=O)[*:2])[C@H]1C; X3 = CC1C(C)C1C(N[*:1])C(=O)[*:2]; NMeL = CN[CH](CC(C)C)C(=O)O; NMeA = CN[CH](C)C(=O)O; dNMeA = CN[C@H](C)C(=O)O

Legend:
[1] = test system: 3T3-L1 murine adipocytes; test: 3T3-L1 fat accumulation (triglyceride) assay; format: cell-based; details: differentiated 3T3-L1 adipocytes, 7 days, read-out: Anti-obesity activity (fat accumulation) EC50
Description: (§1) MV-A, MV-B, MV-C and MV-D are evaluated for their anti-obesity effects in 3T3-L1 murine adipocytes. 3T3-L1 cells are cultured in the presence of insulin to induce adipocyte differentiation.
(§2) Pure compounds are evaluated against 3T3-L1 cell line for their potential anti-obesity activity. […] After the cells reach 100% confluence, the culture medium is changed to a differentiation DMEM medium containing 10% FCS, […], 0.5 mM 3-isobutyl-1-methylxanthine (IBMX), 90 U/mL penicillin, […] and 10 μg/mL insulin for induction of the adipocyte form of the 3T3-L1 cells. After 2 days, the differentiation medium is changed back to the normal DMEM medium and refreshed with the normal medium every 2 days. After incubation of additional 7 days, the cells are seeded in two sets of 96-well plates (about 10,000 cells per well). The test compounds in different concentrations are then added to the wells with 0.5% aqueous DMSO as control group. After incubation of 7 days, the differentiated 3T3-L1 adipocytes are treated with 2% Triton-X 100 ([…]) for 30 min at room temperature followed by sonication for 1 min. Fat accumulation is determined by measuring the liberated triglyceride using a Wato Triglyceride E-test Kit with the absorbance at 630/690 nm. The fat-accumulation rate is calculated as a percentage of the DMSO control. […] The cell viability of the differentiated 3T3-L1 adipocytes in another 96-well plate is treated with a Wako Cell Counting Kit-8 Test and measured with the absorbance at 450 nm. The cell viability is calculated as a percentage of the control.

[2] = test system: panel of cancer cell lines comprising KB, HCT116, LNCaP, A549, MCF7, HL60, Hela and A375; details: for IC50: read-out: Cell killing activity, IC50 values range over the panel, range over panel of human cancer cell lines
[3] = test system: colon cancer cell line (HCT116); test: Hollow fiber in vivo test, HCT116; parameters: species or system mouse
Description: (§3) Hollow fiber tests are well known in the art for providing preliminary indications of therapeutic efficacy (Mi et al. J. Nat. Prod. 2002, 65: 842-850). In hollow fiber tests, human tumor cell lines currently employed in cell cultures are grown inside semipermeable hollow fibers to form heterogeneous solid tumor models. […] By evaluating the test compound's inhibition of tumor cell growth versus the toxic response in the host, a preliminary estimate of therapeutic efficacy is provided in a cost- and time effective manner.

[4] = test system: cervical cancer cell line (Hela); test: Hollow fiber in vivo test, Hela; parameters: species or system mouse
Description: as §3

[5] = test system: lung cancer cell line (A549); test: Hollow fiber in vivo test, A549; parameters: species or system mouse
Description: as §3

[6] = Body weight of mice after drug treatment; details: 1 mg/kg and 2 mg/kg
[7] = test system: 3T3-L1 murine adipocytes; test: 3T3-L1 adipocyte cell viability; format: cell-based; details: differentiated 3T3-L1 adipocytes
Description: as §1, §2

[8] = test system: MCF7-tumor xenograft; test: MCF7 xenograft mouse model; details: for Inhibition of MCF7 tumor growth (excised tumor weights): twice a week for 3 weeks
Description: The treatment started on the 12th day when the MCF7-tumor size reached approximately 100 mm^3 (L×W×H). Two doses of MV-A (1.0 and 2.0 mg/kg), paclitaxel (5 mg/kg), and vehicle were administered via i.p. (intraperitoneal), i.v. (intravenous), or oral respectively, to the tumor-bearing mice twice a week for 3 weeks ([…]).
Antitumor animal study. All animal studies were approved and performed according to Animal Care and Use Guidelines of the Animal Ethics Committee at Hong Kong Baptist University and performed following Animal Care and Use guidelines set by NIH (National Institute of Health, USA). BALB/c nude mice, SPF class, male or female, 5-6 weeks old, were purchased from Charles River Laboratories. Before the experiment, it is one week of acclimatization to SPF class laboratory conditions. MV-A is tested for its anticancer activity against HCT116 and MCF7 cancer cells using a number of nude mice (Balc/nu/nu, female) in comparison of paclitaxel and maytansine. HCT116 or MCF7 cancer cells are subcutaneously implanted with 5×10^6 cells in the rear flank of each mouse. Female mice receiving MCF-7 cells are implanted with an s.c. pellet of 17β-estradiol (0.72 mg/pellet) a few days prior to injection to induce tumors. […] The mice are divided into 5 groups for HCT116 cancer cells: one high dose (1.0 mg/kg: 10 mice) group of MV-A, one low dose (0.5 mg/kg: 10 mice) group of MV-A, one dose (5.0 mg/kg: 10 mice) of paclitaxel, one dose of maytansine (0.1 mg/kg) and one dose of vehicle (negative control: 10 mice). The mice are then divided into 4 groups for MCF7 cancer cells: one high dose (2.0 mg/kg: 10 mice) group of MV-A, one low dose (1.0 mg/kg: 10 mice) group of MV-A, one dose (5.0 mg/kg: 10 mice) of paclitaxel, and one dose of vehicle (negative control: 10 mice). Every other day administration via i.p. (intraperitoneal), i.v. (intravenous), or oral, respectively are scheduled for 21 days for the HCT116 groups. Twice a week injections administered via i.p. (intraperitoneal), i.v. (intravenous), or oral, respectively are scheduled for […] for the MCF7 groups. Weights of mice and tumor diameters are measured twice a week until the end of the experiment. The tumor size in mm^3 was calculated by the formula: tumor size=length×width×height (L×W×H).

[9] = test system: HCT116-tumor xenograft; test: HCT116 xenograft mouse model; format: in vivo; details: for Inhibition of HCT116 tumor growth (excised tumor weights): every other day for 21 days
Description: The treatment started on the 6th day when the HCT116-tumor reached approximately 100 mm^3 (L×W×W). […] All mice died for the maytansine group after the initial two treatments at the dose of 0.1 mg/kg, indicating the highly toxicity of maytansine.

[10] = test system: breast cancer cell line (MCF7); test: Hollow fiber in vivo test, MCF7; parameters: species or system mouse
Description: as §3

[11] = test system: melanoma cancer cell line (A375); test: Hollow fiber in vivo test, A375; parameters: species or system mouse
Description: as §3

[12] = test system: lung (A549) carcinoma cell line; test: cells; format: cell-based, human; details: for IC50: 72 hours, read-out: Cytotoxic activity IC50, A549; for IC90: read-out: Cytotoxic activity IC90, A549
Description: (§4) Pure compounds are evaluated against the human cancer cell lines comprising our cytotoxicity screening panel. Cytotoxicity assays involving oral epidermoid (KB), colon (HCT116), prostate (LNCaP), breast (MCF7), Hela (cervical), leukemia (HL-60) melanoma (A375) and lung (A549) carcinoma cell lines, are performed using sulforhodamine B according to established protocols (Zhang et al., Journal of Medicinal Chemistry 2006; 49: 693-708; and Jutiviboonsuk A et al., Phytochemistry 2005; 66: 2745-2751.). KB and A375 cells are maintained in DMEM (Dulbecco's modified Eagle medium) medium. LNCaP and HL60 cells are maintained in RPMI1640 medium with hormone-free 10% heat-activated FBS (fetal bovine serum) supplemented with 0.1 nM testosterone. MCF7 and Hela cells are maintained and assayed in MEME (Minimum Essential Medium Eagle) medium containing 10 mg/L of insulin. HCT116 cells are maintained in McCoy's 5A medium supplemented with 10% fetal bovine serum. A549 cells are maintained in RPMI-1640 medium supplemented with 10% FCS. Serial dilutions of the compounds are prepared using 10% aqueous DMSO as solvent. The 190 μL cell suspension (3×10^4 cells in 1 ml media) is incubated with 10 μL sample solutions, in triplicate, in 96-well tissue culture plate at 37° C. in a humidified atmosphere of 5% CO2 in air for 72 hours. 10 μL 10% aqueous DMSO is used as control group. Then the cells are fixed to plastic substratum by the addition of 100 μL cold 20% aqueous trichloroacetic acid and washing with water after incubation at 4° C. for 30 min. After staining cells with 100 μL of 0.4% sulforhodamine B in 1% aqueous AcOH for 30 min, unbound dye is removed by rinsing with 1% aqueous AcOH. The bound dye is solubilized with 200 μL 10 mM unbuffered Tris base, pH 10, and the optical density is measured at 515 nm using an ELISA plate reader. The average data are expressed as a percentage, relative to the control. The IC50 values, the dose that inhibit cell growth by 50%, are calculated using nonlinear regression analysis (percent survival versus concentration).

[13] = test system: colon (HCT116) carcinoma cell line; test: Cytotoxicity assay (sulforhodamine B), HCT116; details: read-out: Cytotoxic activity IC50, HCT116; HCT116 cells, 72 hours
Description: as §4

[14] = test system: oral epidermoid (KB) carcinoma cell line; test: Cytotoxicity assay (sulforhodamine B), KB; format: cell-based, human; details: KB cells; for IC50: 72 hours, read-out: Cytotoxic activity IC50, KB
Description: as §4

[15] = test system: breast (MCF7) carcinoma cell line; test: cells; format: cell-based, human; details: for IC50: 72 hours, read-out: Cytotoxic activity IC50, MCF7; for IC90: read-out: Cytotoxic activity IC90, MCF7
Description: as §4

[16] = test system: prostate (LNCaP) carcinoma cell line; test: cells; format: cell-based, human; details: Homo sapiens, 72 hours, read-out: Cytotoxic activity IC50, LNCaP
Description: as §4

CC(C)C[C@H]1NC(=O)[C@@H](C)N(C)C(=O)[C@H](C)N(C)C(=O)[C@H](C2[C@@H](C)[C@@H]2C)NC(=O)[C@H](CC(C)C)N(C)C(=O)[C@H](C)N(C)C(=O)[C@@H](C2[C@@H](C)[C@@H]2C)NC1=O (stereo partly drawn) [MV-A] (cyclo([NMeA][NMeL][X1][NMeA][dNMeA][dL][X2]))
EC50 [1]: 0.3 nM
IC50 [2]: 0.05 to 1.5 nM
Inhibition (%) ([3]; HCT116-IP, 0.1 mg/kg): 33.1%
Inhibition (%) ([3]; HCT116-IP, 0.2 mg/kg): 53.3%
Inhibition (%) ([3]; HCT116-IP, 0.8 mg/kg): 65.0%
Inhibition (%) ([3]; HCT116-SC, 0.1 mg/kg): 0%
Inhibition (%) ([3]; HCT116-SC, 0.2 mg/kg): 15.1%
Inhibition (%) ([3]; HCT116-SC, 0.8 mg/kg): 12.7%
Inhibition (%) ([4]; Hela-IP, 0.2 mg/kg): 45.8%
Inhibition (%) ([4]; Hela-IP, 0.4 mg/kg): 82.7%
Inhibition (%) ([4]; Hela-SC, 0.2 mg/kg): 23.2%
Inhibition (%) ([4]; Hela-SC, 0.4 mg/kg): 52.8%
Inhibition (%) ([5]; A549-IP, 0.05 mg/kg): 18.2%
Inhibition (%) ([5]; A549-IP, 0.1 mg/kg): 56.6%
Inhibition (%) ([5]; A549-SC, 0.05 mg/kg): 0%
Inhibition (%) ([5]; A549-SC, 0.1 mg/kg): 36.4%
Mortality during the treatments [6]: No mice die
Toxicity observed from dissection of the mice [6]: No sign of toxicity
Drop of average weight of mice after the first two treatments ([6]; intravenous, intraperitoneal or oral): 1 to 2 g
IC50 [7]: 12.9 nM
Inhibition of MCF7 tumor growth (excised tumor weights) ([8]; 1.0 mg/kg (low dose)): 48.1%
Inhibition of MCF7 tumor growth (excised tumor weights) ([8]; 2.0 mg/kg (high dose)): 72.6%
Weight loss of mice after the first two treatments ([8]; MCF7 xenograft, 1.0 and 2.0 mg/kg groups): 1 to 2 g
Inhibition of HCT116 tumor growth (excised tumor weights) ([9]; 0.5 mg/kg (low dose)): 31.1%
Inhibition of HCT116 tumor growth (excised tumor weights) ([9]; 1.0 mg/kg (high dose)): 52.8%
Weight loss of mice after the first two treatments ([9]; HCT116 xenograft, 0.5 and 1.0 mg/kg groups): 1 to 2 g
Inhibition (%) ([10]; MCF7-IP, 0.05 mg/kg): 65.9%
Inhibition (%) ([10]; MCF7-IP, 0.1 mg/kg): 76.8%
Inhibition (%) ([10]; MCF7-IP, 0.2 mg/kg): 68.3%
Inhibition (%) ([10]; MCF7-IP, 0.4 mg/kg): 66.7%
Inhibition (%) ([10]; MCF7-SC, 0.05 mg/kg): 0%
Inhibition (%) ([10]; MCF7-SC, 0.1 mg/kg): 0%
Inhibition (%) ([10]; MCF7-SC, 0.2 mg/kg): 13.9%
Inhibition (%) ([10]; MCF7-SC, 0.4 mg/kg): 56.0%
Inhibition (%) ([11]; A375-IP, 0.2 mg/kg): 35.3%
Inhibition (%) ([11]; A375-IP, 0.4 mg/kg): 67.4%
Inhibition (%) ([11]; A375-SC, 0.2 mg/kg): 17.2%
Inhibition (%) ([11]; A375-SC, 0.4 mg/kg): 27.8%

CC(C)C[C@H]1NC(=O)[C@@H](C)N(C)C(=O)[C@H](C)N(C)C(=O)[C@H](C2[C@@H](C)[C@@H]2C)NC(=O)[C@H](CC(C)C)N(C)C(=O)[C@H](C)N(C)C(=O)[C@@H](CC(C)C)NC1=O (stereo partly drawn) [MV-C] (HELM PEPTIDE1{[meA].[meL].[C[C@@H]1C([C@H](N[*:1])C(=O)[*:2])[C@H]1C].[meA].[C[C@H](C(=O)[*:2])N(C)[*:1]].[dL].[dL]}$PEPTIDE1,PEPTIDE1,1:R1-7:R2$$$V2.0)
EC50 [1]: 38.9 nM
IC50 [2]: 12 to 60 nM
IC50 [7]: 689 nM

CC(C)C[C@H]1NC(=O)[C@@H](C)N(C)C(=O)[C@H](C)N(C)C(=O)[C@H](C2[C@@H](C)[C@@H]2C)NC(=O)[C@H](CC(C)CO)N(C)C(=O)[C@H](C)N(C)C(=O)[C@@H](C2[C@@H](C)[C@@H]2C)NC1=O (stereo partly drawn) [MV-B]
EC50 [1]: 2.6 nM
IC50 [2]: 0.7 to 9.1 nM
IC50 [7]: 83.7 nM

CC(C)CC1NC(=O)C(C)N(C)C(=O)C(C)N(C)C(=O)C(C2C(C)C2C)NC(=O)C(CC(C)C)N(C)C(=O)C(C)N(C)C(=O)C(CC(C)C)NC1=O (stereo not drawn) [Compound 3] (cyclo([X3][NMeA][NMeA]LL[NMeA][NMeL]); configuration not given here)
Reduction in activity in comparison with 1 ([2]; compound with only one DMCPA residue versus 1): at least 100 times
IC50 [12]: 51.8 nM
IC50 [13]: 43.5 nM
IC50 [14]: 12.5 nM
IC50 [15]: 26.6 nM

COc1cc2cc(c1Cl)N(C)C(=O)C[C@H](OC(=O)[C@H](C)N(C)C(C)=O)[C@]1(C)O[C@H]1[C@H](C)[C@@H]1C[C@@](O)(NC(=O)O1)[C@H](OC)/C=C/C=C(\C)C2 [Maytansine, reference compound]
IC50 ([12]; Homo sapiens): 3.18 nM
IC90 ([12]; Homo sapiens): > 40 nM
IC50 ([14]; Homo sapiens): 0.16 nM
Cytotoxic activity IC90, KB [14]: ~5 nM
IC50 [16]: 0.56 nM
IC50 ([15]; Homo sapiens): 0.69 nM
IC90 ([15]; Homo sapiens): > 20 nM
Mortality of tumor-bearing mice ([9]; 0.1 mg/kg, after the first two treatments): All mice died

CC[C@]1(O)C[C@@H]2CN(CCc3c([nH]c4ccccc34)[C@@](C(=O)OC)(c3cc4c(cc3OC)N(C)[C@H]3[C@@](O)(C(=O)OC)[C@H](OC(C)=O)[C@]5(CC)C=CCN6CC[C@]43[C@@H]65)C2)C1 [Vinblastine, reference compound]
IC90 ([12]; Homo sapiens): > 40 nM
Cytotoxic activity IC90, KB [14]: 10.1 nM
IC90 ([15]; Homo sapiens): > 50 nM
